Measured values: publication PMC8960621, “Solution speciation and human serum protein binding of indium(III) complexes of 8-hydroxyquinoline, deferiprone and maltol” (Journal of Biological Inorganic Chemistry, 2022)
Marks after values point to notes of the source that are not given here.

Tests used:
[1] = pH-potentiometric titrations: proton dissociation constants of the ligands and overall stability constants of their In(III) complexes; assay type: physicochemical; conditions: pH-pot, T = 25.0 °C, I = 0.20 M (KCl); for logβ [InL2] / logβ [InL3] / logβ [InL]: In(III) complex of the ligand L; for pKa: water
Method: (§1) To characterize the solution stability of the In(III) complexes, pH-potentiometric and UV–vis spectrophotometric titrations were performed in water in the presence of 0.20 M chloride ions. However, stability constants for the HQ complexes could be obtained only by the latter method due to their much worse water solubility compared to the other compounds. HQS was involved as a water-soluble analogue of HQ bearing identical coordination mode. Stability constants of deferiprone were also determined by both methods in the present work to validate our experimental setup and data treatment, since the In(III) ‒ deferiprone system was already characterized by Orvig and collaborators. The hydrolysis of In(III) and its interaction with chloride ions were taken into consideration, and stability constants of the hydoxido and chlorido complexes were utilized for our calculations. As a first step, the proton dissociation constants (Ka) were determined for the ligands (Table 1) showing good agreement with the previously published data (see Table 1). The overall stability constants obtained for the octahedral In(III)-deferiprone complexes by both methods (Table 1) are fairly similar to those reported at 150 mM NaCl. […] Complexes with the same stoichiometry were also formed with the O,N-donor containing HQS (Table 1). […] Stability constants for the HQ complexes (Table 1) were determined by the deconvolution of UV–vis spectra recorded at various pH values (Fig. 1a), and the computed molar absorbance spectra for the individual ligand and complex species are shown in Fig. 1b. Due to the lack of d-d or charge transfer bands, the molar absorbance spectra of the complexes represent similar λmax values to that of the completely deprotonated form of the ligand; although, the shape of the spectra is different and is quite similar to that was found for the Ga(III) complexes.
The pH-potentiometric measurements for the determination of the proton dissociation constants of the ligands (HQS, maltol, deferiprone) and the overall stability constants of their In(III) complexes were carried out at 25.0 ± 0.1 °C in water at an ionic strength of 0.20 M (KCl, Sigma-Aldrich). The titrations were performed with a carbonate-free KOH solution of known concentration (0.20 M). An Orion 710A pH-meter equipped with a Metrohm combined electrode (type 6.0234.100) and a Metrohm 665 Dosimat burette were used for the pH-potentiometric measurements. […] The average water ionization constant, pKw, is 13.76 ± 0.01, which corresponds well to literature data. The reproducibility of the titration points included in the calculations was within 0.005 pH units. The pH-potentiometric titrations were performed in the pH range 2.0–11.5. The initial volume of the samples was 10.0 mL, and the ligand concentration was 3 mM and metal ion-to-ligand ratios of 1:1 to 1:4 were used. The fitting of the titration curves was less than 0.01 mL. (The fitting parameter is the average difference between the experimental and calculated titration curves expressed in the volume of the titrant.) Samples were deoxygenated by bubbling purified argon through them for ca. 10 min prior to the measurements. The proton dissociation constants of the ligands, the stoichiometry and the overall stability constants of the complexes were determined with the computer program HYPERQUAD [60]. Overall stability constants of the complexes (β(MpLqHr)) is defined for the general equilibrium pM + qL + rH ⇌ MpLqHr as β (MpLqHr) = [MpLqHr]/[M]^p[L]^q[H]^r where M denotes the metal ion and L the completely deprotonated ligand. Hydrolysis constants for In(III) and stability constants for the In(III)-chlorido complexes (Table 1) are taken from references. The calculations were always made from the experimental titration data measured in the absence of any precipitate in the solution.

[2] = UV-vis spectrophotometric titrations: proton dissociation constants of the ligands and overall stability constants of their In(III) complexes; assay type: physicochemical; conditions: T = 25.0 °C, I = 0.20 M (KCl); for logβ [InL2] / logβ [InL3] / logβ [InL]: In(III) complex of the ligand L; for pKa: water
Method: as §1
Proton dissociation of the ligands (HQ, HQS, maltol, deferiprone) and overall stability constants and the individual spectra of their complexes were calculated with the computer program PSEQUAD [43]. The spectrophotometric titrations were performed on samples of the ligands with or without In(III); the concentration of the ligands was 0.10 mM, and the metal-to-ligand ratios were 1:1, 1:2, 1:3 and 1:4 over the pH range used in pH-potentiometric measurements at 25.0 ± 0.1 °C at an ionic strength of 0.20 M (KCl).

[3] = pM* / pM values computed at pH 7.4 from stability constants; assay type: physicochemical; conditions: for pIn (pM = –log[M(III)]): Table S1, does not account for hydrolysis of the metal ion; for pGa* (−log([M] + [M(OH)(1–4)])): pH 7.4, 1 μM Ga(III), computed from stability constants of Ref. 27 (deferiprone) or Ref. 29 (maltol, HQS, HQ); for pGa* (−log([M] + [M(OH)(1–4)])) / pIn* (−log([M] + [M(OH)(1–4)])): 10 μM ligand; for pIn* (−log([M] + [M(OH)(1–4)])): pH 7.4, 1 μM In(III)
Method: To compare the In(III) binding ability of the studied four ligands, pIn* (= negative decadic logarithm of the equilibrium concentration of the unbound metal species) values were calculated at pH 7.4 using the determined stability constants (Table 1).
Table S1. Calculated pM values for the studied In(III) complexes and their Ga analogues,
a Computed on the basis of stability constants taken from Ref. [27]. b Computed on the basis of stability
constants taken from Ref. [29] […]

[4] = molecular target: T1, human serum albumin (HSA) (Homo sapiens, UniProt P02768); set-up: method as in PMID 25398250; conditions: cited from earlier work
T1 construct: purchased Sigma-Aldrich A8763
T1 sequence (P02768 25-609): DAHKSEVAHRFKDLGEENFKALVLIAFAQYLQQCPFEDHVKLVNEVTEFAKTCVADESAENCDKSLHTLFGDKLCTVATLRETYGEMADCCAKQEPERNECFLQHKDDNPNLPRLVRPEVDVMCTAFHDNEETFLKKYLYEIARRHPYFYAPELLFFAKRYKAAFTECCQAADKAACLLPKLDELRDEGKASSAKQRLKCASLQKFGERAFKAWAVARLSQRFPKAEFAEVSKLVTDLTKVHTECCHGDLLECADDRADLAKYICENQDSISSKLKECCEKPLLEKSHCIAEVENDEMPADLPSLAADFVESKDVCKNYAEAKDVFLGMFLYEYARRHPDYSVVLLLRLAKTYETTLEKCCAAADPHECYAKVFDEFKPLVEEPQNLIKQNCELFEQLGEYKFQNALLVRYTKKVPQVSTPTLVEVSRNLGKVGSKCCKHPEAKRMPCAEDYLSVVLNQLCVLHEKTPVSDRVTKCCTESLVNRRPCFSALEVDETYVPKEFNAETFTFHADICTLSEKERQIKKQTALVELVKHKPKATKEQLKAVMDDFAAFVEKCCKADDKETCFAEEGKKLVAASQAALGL

[5] = set-up: method as in PMID 25398250; conditions: same LMM competitors in tenfold excess, investigated separately; cited from earlier work
apoTf = molecular target: T2, apoTf (Homo sapiens, UniProt P02787); test: Interaction with (apo)Tf: ligand displacement and binding of the intact complex (UV-vis, fluorescence, ultrafiltration); conditions: UV–vis and fluorescence, pH 7.40
T2 construct: purchased Sigma-Aldrich T2036
T2 sequence (P02787 20-698): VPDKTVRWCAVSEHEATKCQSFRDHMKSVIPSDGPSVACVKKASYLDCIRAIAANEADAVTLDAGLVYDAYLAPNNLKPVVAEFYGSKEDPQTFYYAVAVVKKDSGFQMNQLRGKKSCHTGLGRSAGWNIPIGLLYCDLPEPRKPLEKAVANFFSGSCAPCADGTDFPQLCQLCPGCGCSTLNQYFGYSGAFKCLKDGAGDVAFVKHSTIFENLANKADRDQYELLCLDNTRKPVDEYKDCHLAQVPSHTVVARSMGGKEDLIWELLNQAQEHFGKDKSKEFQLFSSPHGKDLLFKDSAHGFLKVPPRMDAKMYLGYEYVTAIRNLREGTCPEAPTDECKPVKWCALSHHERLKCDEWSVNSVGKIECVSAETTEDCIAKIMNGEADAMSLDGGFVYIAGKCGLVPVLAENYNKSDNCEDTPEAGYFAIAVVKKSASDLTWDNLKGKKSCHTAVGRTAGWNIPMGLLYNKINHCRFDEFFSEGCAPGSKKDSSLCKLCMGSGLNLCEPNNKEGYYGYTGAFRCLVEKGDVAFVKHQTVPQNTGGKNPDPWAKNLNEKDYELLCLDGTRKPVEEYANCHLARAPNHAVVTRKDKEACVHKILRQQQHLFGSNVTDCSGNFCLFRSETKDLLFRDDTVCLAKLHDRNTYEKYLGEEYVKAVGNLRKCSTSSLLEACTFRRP
Method: Therefore, UV–vis and fluorescence emission spectra of InQ3 were recorded in the presence of increasing amounts of apoTf (Fig. 5a, b). After a short initial phase, the absorbance band of InQ3 is reduced gradually by the addition of the protein, while the development of the new band at lower wavelengths (at ca. 310 nm) refers to the liberation of HQ. Namely, there is a competition for In(III) ion between the ligand and the iron-binding sites of apoTf. Absorbance values depicted at 370 nm and 310 nm (Fig. 5c) saturate roughly to the corresponding values of the free ligand and outline a sigmoidal shape. Fluorescence intensity of the same sample set (Fig. 5b, d) was enhanced and moderately blue shifted (from λmax = 540 nm to 532 nm) until the addition of ca. 0.2 equiv. apoTf. […] Then, by the addition of more apoTf, intensities decreased and λmax shifted further to shorter wavelengths (527 nm). […] Based on this and the results of apoTf quenching (vide supra) protein binding of the non-dissociated complex is presumed. This is further supported by fluorescence lifetime measurements; where new lifetime components τ3 = 4.7 ± 0.2 ns and τ4 = 13.8 ± 0.4 ns appeared for InQ3 in the presence of 0.1 – 0.3 equiv. apoTf (after 1 min waiting time). […] Here, the sigmoid shape of the UV–vis absorbance was seen again (Fig. S5) and the shifted inflection point in comparison to the titration with apoTf underlines the lower In(III) binding capacity of Tf. […]
In the case of InD3, the absorbance bands of the metal complex and apoTf overlap in great extent, however, spectra can be deconvoluted to the spectra of InD3, deferiprone and apoTf (see Fig S6 for details), and molar fractions of the respective species can be calculated (Fig. 6). Ultrafiltration experiments were carried out as well for the InD3 – apoTf system and the non-protein bound LMM fractions were analyzed by UV–vis spectrophotometry (Fig. 6). […] The complex dissociated in line with the addition of apoTf and a practically quantitative displacement of deferiprone seems to take place by the addition of ca. 0.5 equiv. apoTf. […]

apo-transferrin (apoTf) [6] = molecular target: T3, apo-transferrin (apoTf) (Homo sapiens, UniProt P02787); test: Kinetics of the reaction with apoTf followed by UV-vis spectrophotometry; assay type: binding; conditions: pH 7.40 (InCl3: 2 equiv.)
T3 construct: purchased Sigma-Aldrich T2036
T3 sequence (P02787 20-698): as above
Method: Firstly, the kinetics of the reaction between apoTf and InCl3 and the complexes was studied by UV–vis spectrophotometry. The reaction of 2 equiv. […] At the same time Harris et al. have observed slow equilibration with InCl3, that was accelerated (to 6 h) in the presence of NTA [18]. In the case of InQ3 and InD3, the progress of apoTf binding could be followed through the ligand bands of the complexes. […] The Ga(III)-analogue GaQ3 interacted within 1 h with apoTf under similar conditions.
For (apo)Tf containing samples, complex concentrations were 20 μM and 0–2.5 equiv. protein was added. Reference spectra for the complexes, ligands and protein were recorded as well. Samples prepared with blood serum contained three-fold diluted serum and 10 μM metal complexes. UV–vis spectra presented in this paper for complexes InD3 or InQ3 are subtracted by the spectrum of reference protein (HSA (apo)Tf or serum) sample in all cases in favour of the better interpretation of the results.

apo-transferrin (apoTf) [7] = molecular target: T3, apo-transferrin (apoTf); conditions: in the presence of NTA; cited from earlier work

Cc1c(O)c(=O)ccn1C [Deferiprone, 3-Hydroxy-1,2-dimethylpyridin-4(1H)-one]
logβ [InL2] [1]: 23.50 ± 0.06^ h
logβ [InL3] [1]: 32.66 ± 0.08^ h
logβ [InL] [1]: 13.67 ± 0.04^ h
pKa ([1]; read-out: pKa (H2L)): 3.66 ± 0.01
pKa ([1]; read-out: pKa (HL)): 9.72 ± 0.01
logβ [InL2] [2]: 23.88 ± 0.06
logβ [InL3] [2]: 33.45 ± 0.03
logβ [InL] [2]: 13.72 ± 0.03
pKa ([2]; read-out: pKa (H2L)): 3.57 ± 0.02
pIn (pM = –log[M(III)]) [3]: 16.25
pGa* (−log([M] + [M(OH)(1–4)])) [3]: 8.83^i
pIn* (−log([M] + [M(OH)(1–4)])) [3]: 7.95

Cc1occc(=O)c1[O-].Cc1occc(=O)c1[O-].Cc1occc(=O)c1[O-].[Ga+3] [GaM3, Tris(3-Hydroxy-2-methyl-4H-pyran-4-onato)gallium(III)]
interaction with HSA [4]: no interaction
effect of LMM competitors on the complex [5]: practically not affected

Oc1cccc2cccnc12 [HQ, 8-Hydroxyquinoline]
binding via intermolecular interactions to apoTf (and Tf) (apoTf): can be excluded
logβ [InL2] [2]: 22.87 ± 0.03
logβ [InL3] [2]: 32.64 ± 0.06
logβ [InL] [2]: 13.43 ± 0.06
pKa ([2]; read-out: pKa (H2L)): 4.9 ± 0.02
pKa ([2]; read-out: pKa (HL)): 9.63 ± 0.02
pIn (pM = –log[M(III)]) [3]: 16.48
pGa* (−log([M] + [M(OH)(1–4)])) [3]: 7.86^j
pIn* (−log([M] + [M(OH)(1–4)])) [3]: 8.18

O=S(=O)(O)c1ccc(O)c2ncccc12 [HQS, 8-Hydroyquinoline-5-sulfonate]
logβ [InL2] [1]: 21.31 ± 0.07
logβ [InL3] [1]: 28.95 ± 0.09
logβ [InL] [1]: 12.64 ± 0.05
pKa ([1]; read-out: pKa (H2L)): 3.89 ± 0.02
pKa ([1]; read-out: pKa (HL)): 8.46 ± 0.02
logβ [InL2] [2]: 21.18 ± 0.06
logβ [InL3] [2]: 29.66 ± 0.06
logβ [InL] [2]: 12.29 ± 0.06
pKa ([2]; read-out: pKa (H2L)): 3.7 ± 0.04
pKa ([2]; read-out: pKa (HL)): 8.27 ± 0.04
pIn (pM = –log[M(III)]) [3]: 16.23
pGa* (−log([M] + [M(OH)(1–4)])) [3]: 7.92^j
pIn* (−log([M] + [M(OH)(1–4)])) [3]: 7.93

[Cl-].[Cl-].[Cl-].[In+3] [InCl3, reference compound]
time to reach equilibrium in the reaction with apoTf (apo-transferrin (apoTf) [6]): ca. 2 h
equilibration time with Tf (apo-transferrin (apoTf) [7]): 6 h

Cc1occc(=O)c1O [Maltol, 3-Hydroxy-2-methyl-4H-pyran-4-one]
logβ [InL2] [1]: 18.59 ± 0.03
logβ [InL3] [1]: 24.38 ± 0.05
logβ [InL] [1]: 11.03 ± 0.03
pKa ([1]; read-out: pKa (HL)): 8.47 ± 0.01
logβ [InL2] [2]: 18.78 ± 0.03
logβ [InL3] [2]: 25.04 ± 0.06
logβ [InL] [2]: 10.77 ± 0.03
pKa ([2]; read-out: pKa (HL)): 8.39 ± 0.02
pIn (pM = –log[M(III)]) [3]: 14.31
pGa* (−log([M] + [M(OH)(1–4)])) [3]: 6.00^j
pIn* (−log([M] + [M(OH)(1–4)])) [3]: 6.01
